# Test results as given in US12071407B1, “6-(4-hydroxyphenyl)-2-(2-ethoxyethoxy)-4-(4-methoxyphenyl)nicotinonitrile as an antimicrobial compound” (KING FAISAL UNIVERSITY, priority 2023, dated 2024).
# Columns and labels:
# Candida albicans = assay: Antimicrobial screening by agar dilution; type: cell-based; settings: after 10, 20, 40 and 60 minutes at all dilutions 1:100, 1:200, 1:400, 1:800
# Method: (§1) The antibacterial properties of the synthesized compound 6-(4-hydroxyphenyl)-2-(2-ethoxyethoxy)-4-(4-methoxyphenyl)nicotinonitrile were studied by the method of agar dilution. Test solutions of each compound was prepared in concentration of 1% using dimethylformamide as a solvent then they are diluted in physiological solution to obtain the final experimental dilutions 1:100, 1:200, 1:400, 1:800. The effects of these substances are compared with furacillin in a controllable study. The testing microbes used were gram positive bacteria Staphylococcus aureus, gram negative bacteria Pseudomonas aeruginosa and Escherichia coli and Candida albicans fungus. The experiments used for this survey were meat-pentonlu agar (EPA) for cultivation of bacteria and Saburo environment for the fungus. Each experiment used 1 mL of test solution on each plate […]. Two drops of emulsified with microbes feel were added. All experimental samples were taken from the agar after 10, 20, 40, 60 minutes in the environment on the basis of Patrk planted. The bacteria were cultivated at a temperature of 37° C. for 1 day and the mushroom was kept in a thermostat for […] at a temperature of 28° C. Then results were checked.
# Escherichia coli = assay: Antimicrobial screening by agar dilution; type: cell-based; settings: after 10, 20, 40 and 60 minutes at all dilutions 1:100, 1:200, 1:400, 1:800
# Method: as §1
# Pseudomonas aeruginosa = assay: Antimicrobial screening by agar dilution; type: cell-based; settings: after 10, 20, 40 and 60 minutes at all dilutions 1:100, 1:200, 1:400, 1:800
# Method: as §1
# Staphylococcus aureus = assay: Antimicrobial screening by agar dilution; type: cell-based; settings: after 10, 20, 40 and 60 minutes at all dilutions 1:100, 1:200, 1:400, 1:800
# Method: as §1
smiles,measurement,setting,value
CCOCCOc1nc(-c2ccc(O)cc2)cc(-c2ccc(OC)cc2)c1C#N [6-(4-hydroxyphenyl)-2-(2-ethoxyethoxy)-4-(4-methoxyphenyl)nicotinonitrile],inhibition activity (summary in words),Candida albicans,highest inhibition activity
same,inhibition activity (summary in words),Escherichia coli,highest inhibition activity
same,inhibition activity (summary in words),Pseudomonas aeruginosa,highest inhibition activity
same,inhibition activity (summary in words),Staphylococcus aureus,highest inhibition activity
same,melting point,,209 to 211 °C
